“Also recorded” adds a separate entry of the source.
What was measured:
antithrombin (AT) = antithrombin (AT) (Homo sapiens, UniProt P01008); assay: Binding affinity of LMWHs to antithrombin by affinity co-electrophoresis; conditions: 35S-labeled compounds; average of two or three determinations
Experimental: The dissociation constant (Kd) of each sample and AT was determined using affinity co-electrophoresis (Lee, M. K. & Lander, A. D., Proc. Natl. Acad. Sci. USA 88, 2768-2772, 1991). Approximately 1500-2500 cpm of ^35S-labeled LMWH Compounds 1 to 5 was loaded per lane with zones of AT at concentrations 0, 8, 16, 32, 60, 120, 250, 500 and 1000 nM. The gel was performed at 300 mA for 2 h, dried and analyzed on a Phospholmager (Amersham Biosciences, Wauwatosa, Wis., United States of America Storm 860). The retardation coefficient was calculated at R=(M0−M)/M0, where M0 is the mobility of the polysaccharide through the zone without AT, and M is the mobility of the sample through each separation zone. The retardation coefficient was then plotted against the retardation coefficient divided by its respective concentration of AT. The slope of the line represents −1/Kd.

human factor Xa [1] = assay: Neutralization of LMWHs by protamine in vitro (anti-Xa activity); type: biochemical; conditions: human plasma, protamine 0-90 μg/ml (FIG. 4B)
Experimental: Determination of the in vitro and ex vivo anti-Xa activity. Assays were based on a previously published method (Zhang, L. et al., J. Biol. Chem. 276, 42311-42321, 2001; Duncan et al., Biochim Biophys Acta 1671, 34-43, 2004). Briefly, human factor Xa (Enzyme Research Laboratories, South Bend, Ind., United States of America) was diluted to 50 Uml^−1 with PBS. The chromogenic substrates, S-2765 was from Diapharma (Westchester, Ohio, United States of America) and made up at 1 mgml^−1 in water. UFH (from US Pharmacopea), LOVENOX® (from local pharmacy) and LMWH Compounds 1 to 5) was dissolved in PBS at various concentrations (3 to 600 μgml^−1). The reaction mixture, which consisted of 20 μl of human plasma (Sigma-Aldrich, St. Louis, Mo., United States of America) and 8 μl of the solution containing the sample, was incubated at room temperature for 5 min. Factor Xa (100 μl) was then added. After incubating at room temperature for 4 min, 30 μl of S-2765 substrate was added. The absorbance of the reaction mixture was measured at 405 nm continuously for 5 min. The absorbance values were plotted against the reaction time. The initial reaction rates as a function of concentration were used to calculate the IC50 values.
The procedures followed a previous publication (Sundaram, M. et al., Proc. Natl. Acad. Sci. 100, 651-656, 2003). The LMWH Compounds and protamine chloride (Sigma-Aldrich) were dissolved in PBS. The concentrations of the LMWH samples for each Compound were different because each Compound has different IC50 value for the anti-Xa activity. […] The mixture (30 μl) was then subjected to anti-Xa activity measurement as described above.

mice = assay: Mouse model of tail bleeding; type: in vivo; conditions: for effect of protamine on primary bleeding time after tail transection: protamine 15 mgkg^−1 i.v. (FIG. 4D)
Experimental: Under isoflurane anesthesia, mice (n=8 per group) were administered with PBS or Compound 5 (0.6 mgkg^−1) subcutaneously, 30 min later PBS or protamine (15 mgkg^−1) was administered via retro-orbital intravenous injection. After 5 minutes the distal part of the tail was transected at the constant diameter (1.5 mm), approximately 3-4 mm from the end. That results in both arterial and venous bleeding. […] The primary bleeding time was defined as the time to the first cessation of bleeding. Subsequently, time for each reinitiated bleeding was also recorded, and used to calculate total bleeding time. One mouse in Compound 5/protamine group received an inaccurate protamine injection and was excluded from the study. The blood collected in PBS was used to calculate total blood volume loss. Formic acid was added to samples (70:30 ratio) and absorbance was measured at 405 nm. A standard curve was generated by mixing […] of PBS with known amounts of blood. Statistical analysis between each group was performed by one-way ANOVA (GraphPad Prism Software, La Jolla, Calif., United States of America) followed by Bonferroni's multiple comparison test.

human factor Xa [2] = assay: Neutralization of LMWHs by protamine in mice, ex vivo anti-Xa activity in mouse plasma; conditions: C57BL/6J mice, s.c. test compound, protamine 15 mgkg^−1 i.v. 30 min later, plasma 5 min later (FIG. 4C)
Experimental: The study was performed on eight week old male C57BL/6J mice (Jackson Laboratories, Bar Harbor, Me., United States of America) (n=4 per group). The mouse experiments were approved by the UNC Animal Care and Use Committees and complied with National Institutes of Health guidelines. Under isoflurane anesthesia, mice were subcutaneously administered with PBS, UFH (3 mgkg^−1), LOVENOX® (3 mgkg^−1) or Compound 5 (0.6 mgkg^−1) 30 min prior to a protamine administration. […] To obtain mouse plasma, blood samples were centrifuged at 4,000 g for 15 min at 4° C. Mouse plasma was then used to determine anti-Xa activity. Ex vivo analysis of anti-Xa activity was done similar to the in vitro study described above. Briefly, plasma (10 μl) from different groups of mice was incubated with 80 nM human factor Xa (10 μl) at room temperature for 4 minutes and S-2765 (1 mgml^−1, 30 μl) was then added. The anti-Xa activity in the mouse plasma from the PBS injected mice was defined as 100%. Statistical analysis for multiple comparisons was performed by two-way ANOVA with Bonferroni's post-hoc test (GraphPad Prism Software, La Jolla, Calif., United States of America).

Sequence of antithrombin (AT) (P01008 33-464): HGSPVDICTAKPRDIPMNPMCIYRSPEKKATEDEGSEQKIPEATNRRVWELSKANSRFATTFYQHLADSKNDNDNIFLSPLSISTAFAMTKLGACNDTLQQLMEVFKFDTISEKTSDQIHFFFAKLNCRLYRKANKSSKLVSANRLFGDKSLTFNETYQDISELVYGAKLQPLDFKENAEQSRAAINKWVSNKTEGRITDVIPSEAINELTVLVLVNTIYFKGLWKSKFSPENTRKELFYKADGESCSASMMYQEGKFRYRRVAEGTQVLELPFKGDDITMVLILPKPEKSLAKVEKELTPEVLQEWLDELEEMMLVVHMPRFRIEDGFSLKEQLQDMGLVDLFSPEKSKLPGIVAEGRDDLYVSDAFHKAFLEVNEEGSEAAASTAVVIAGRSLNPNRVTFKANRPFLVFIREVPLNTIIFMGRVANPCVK

Compound | Kd (antithrombin (AT)) | in vitro reversibility of anti-Xa activity by protamine (human factor Xa [1]) | effect of protamine on blood loss after tail transection (mice; mice, Compound 5 0.6 mgkg^−1 s.c., protamine 15 mgkg^−1 i.v.) | effect of protamine on primary bleeding time after tail transection (mice; mice, Compound 5 0.6 mgkg^−1 s.c.) | effect of protamine on primary bleeding time after tail transection (mice; mice, Compound 5 0.6 mgkg^−1 s.c., listed as compound 5) | reversal of anti-Xa activity in an in vivo experiment (mice; mouse tail bleeding model, protamine) | ex vivo reversibility of anti-FXa activity by protamine (human factor Xa [2])
O=C(O)C1OC(OC2C(COS(=O)(=O)O)OC(OC3C(C(=O)O)OC(OC4C(COS(=O)(=O)O)OC(OC5C(C(=O)O)OC(Oc6ccc([N+](=O)[O-])cc6)C(O)C5O)C(NS(=O)(=O)O)C4O)C(OS(=O)(=O)O)C3O)C(NS(=O)(=O)O)C2OS(=O)(=O)O)C(O)C(O)C1OC1OC(COS(=O)(=O)O)C(O)C(O)C1NS(=O)(=O)O (stereo not drawn) [Compound 1] | 7 nM | Unlike Compounds 1, 2, and 3, Compound 4 was partially reversed by protamine | – | – | – | – | –
O=C(O)C1OC(OC2C(COS(=O)(=O)O)OC(OC3C(C(=O)O)OC(OC4C(COS(=O)(=O)O)OC(OC5C(C(=O)O)OC(OC6C(COS(=O)(=O)O)OC(OC7C(C(=O)O)OC(Oc8ccc([N+](=O)[O-])cc8)C(O)C7O)C(NS(=O)(=O)O)C6O)C(OS(=O)(=O)O)C5O)C(NS(=O)(=O)O)C4O)C(OS(=O)(=O)O)C3O)C(NS(=O)(=O)O)C2OS(=O)(=O)O)C(O)C(O)C1OC1OC(COS(=O)(=O)O)C(O)C(O)C1NS(=O)(=O)O (stereo not drawn) [Compound 2] | 8 nM | Unlike Compounds 1, 2, and 3, Compound 4 was partially reversed by protamine | – | – | – | – | –
O=C(O)C1OC(OC2C(COS(=O)(=O)O)OC(OC3C(C(=O)O)OC(OC4C(COS(=O)(=O)O)OC(OC5C(C(=O)O)OC(OC6C(COS(=O)(=O)O)OC(OC7C(C(=O)O)OC(OC8C(COS(=O)(=O)O)OC(OC9C(C(=O)O)OC(Oc%10ccc([N+](=O)[O-])cc%10)C(O)C9O)C(NS(=O)(=O)O)C8O)C(OS(=O)(=O)O)C7O)C(NS(=O)(=O)O)C6O)C(OS(=O)(=O)O)C5O)C(NS(=O)(=O)O)C4O)C(OS(=O)(=O)O)C3O)C(NS(=O)(=O)O)C2OS(=O)(=O)O)C(O)C(O)C1OC1OC(COS(=O)(=O)O)C(O)C(O)C1NS(=O)(=O)O (stereo not drawn) [Compound 3] | 5 nM | Unlike Compounds 1, 2, and 3, Compound 4 was partially reversed by protamine | – | – | – | – | –
CC(=O)NC1C(OC2C(C(=O)O)OC(OC3C(COS(=O)(=O)O)OC(OC4C(C(=O)O)OC(OC5C(COS(=O)(=O)O)OC(OC6C(C(=O)O)OC(OC7C(COS(=O)(=O)O)OC(OC8C(C(=O)O)OC(OC9C(COS(=O)(=O)O)OC(OC%10C(C(=O)O)OC(OC%11C(COS(=O)(=O)O)OC(OC%12C(C(=O)O)OC(Oc%13ccc([N+](=O)[O-])cc%13)C(O)C%12O)C(NS(=O)(=O)O)C%11O)C(OS(=O)(=O)O)C%10O)C(NS(=O)(=O)O)C9O)C(OS(=O)(=O)O)C8O)C(NS(=O)(=O)O)C7O)C(OS(=O)(=O)O)C6O)C(NS(=O)(=O)O)C5O)C(OS(=O)(=O)O)C4O)C(NS(=O)(=O)O)C3OS(=O)(=O)O)C(O)C2O)OC(COS(=O)(=O)O)C(O)C1O (stereo not drawn) [Compound 4] | 30 nM | partially reversed by protamine | – | – | – | – | –
CC(=O)NC1C(OC2C(C(=O)O)OC(OC3C(COS(=O)(=O)O)OC(OC4C(C(=O)O)OC(OC5C(COS(=O)(=O)O)OC(OC6C(C(=O)O)OC(OC7C(COS(=O)(=O)O)OC(OC8C(C(=O)O)OC(OC9C(COS(=O)(=O)O)OC(OC%10C(C(=O)O)OC(OC%11C(COS(=O)(=O)O)OC(OC%12C(C(=O)O)OC(Oc%13ccc([N+](=O)[O-])cc%13)C(O)C%12O)C(NS(=O)(=O)O)C%11O)C(OS(=O)(=O)O)C%10O)C(NS(=O)(=O)O)C9OS(=O)(=O)O)C(OS(=O)(=O)O)C8O)C(NS(=O)(=O)O)C7O)C(OS(=O)(=O)O)C6O)C(NS(=O)(=O)O)C5O)C(OS(=O)(=O)O)C4O)C(NS(=O)(=O)O)C3OS(=O)(=O)O)C(O)C2O)OC(COS(=O)(=O)O)C(O)C1O (stereo not drawn) [Compound 5] | 28 nM | same protamine reversibility as UFH and greater reversibility than LOVENOX®; also recorded: can be reversed by protamine | reduced the blood loss | protamine shortened the primary bleeding time | significantly shortened the primary bleeding time | can be reversed | reversible

— patent US9951149B2, “Reversible heparin molecules and methods of making and using the same” (The University of North Carolina at Chapel Hill, priority 2013, dated 2018)
